Experimental data as given in ChEMBL document CHEMBL1795221, “In vitro and in vivo anticancer activity evaluation of ursolic acid derivatives” (Eur J Med Chem, 2011).
Activity calls are given as the source filed them. No cut-off for these calls is given here.

What was measured:
[1] = tested on: BGC-823; assay: Cytotoxicity against human BGC823 cells after 24 hrs by MTT assay; assay type: functional, cell-based; settings: BGC-823, 24 h
[2] = tested on: SH-SY5Y; assay: Cytotoxicity against human SH-SY5Y cells after 24 hrs by MTT assay; assay type: functional, cell-based
[3] = Cytotoxicity against human HELF cells after 24 hrs by MTT assay; assay type: cell-based
[4] = tested on: HepG2; assay: Induction of apoptosis in human HepG2 cells at 10 to 30 uM after 24 hrs using acridine orange staining by fluorescence microscopy; assay type: functional, cell-based
[5] = tested on: HepG2; assay: Induction of apoptosis in human HepG2 cells at 10 to 30 uM after 24 hrs using annexin V-EGFP/PI double staining by flow cytometry; assay type: functional, cell-based
[6] = tested on: HepG2; assay: Induction of apoptosis in human HepG2 cells assessed as increase in caspase-3 activity at 10 to 30 uM after 24 hrs by spectrophotometry; assay type: functional, cell-based
[7] = tested on: BGC-823; assay: Induction of apoptosis in human BGC823 cells assessed as increase in caspase-3 activity at 10 to 30 uM after 24 hrs by spectrophotometry; assay type: functional, cell-based
[8] = tested on: HepG2; assay: Cell cycle arrest in human HepG2 cells assessed as accumulation at G0/G1 phase at 10 uM after 24 hrs using propidium iodide staining by flow cytometric analysis (reference value: 57.03 %); assay type: functional
[9] = tested on: HepG2; assay: Cell cycle arrest in human HepG2 cells assessed as accumulation at S phase at 10 uM after 24 hrs using propidium iodide staining by flow cytometric analysis (reference value: 28.66 %); assay type: functional
[10] = tested on: HepG2; assay: Cell cycle arrest in human HepG2 cells assessed as accumulation at G2/M phase at 10 uM after 24 hrs using propidium iodide staining by flow cytometric analysis (reference value: 14.31 %); assay type: functional
[11] = tested on: H22; assay: Antitumor activity against mouse H22 cells xenografted in kunming mouse assessed as inhibition of tumor growth at 100 mg/kg, ip for 7 days; assay type: functional; settings: 168 h, route intraperitoneal
[12] = tested on: H22; assay: Antitumor activity against mouse H22 cells xenografted in kunming mouse assessed as inhibition of tumor growth at 150 mg/kg, ip for 7 days; assay type: functional; settings: 168 h, route intraperitoneal
[13] = tested on: H22; assay: Antitumor activity against mouse H22 cells xenografted in kunming mouse assessed as increase in body weight at 50 to 150 mg/kg, ip for 7 days; assay type: functional, organism-based
[14] = tested on: H22; assay: Antitumor activity against mouse H22 cells xenografted in kunming mouse assessed as inhibition of tumor growth at 50 mg/kg, ip for 7 days; assay type: functional; settings: 168 h, read-out: INH, route intraperitoneal
[15] = tested on: HepG2; assay: Cell cycle arrest in human HepG2 cells assessed as accumulation at G0/G1 phase at 20 uM after 24 hrs using propidium iodide staining by flow cytometric analysis (reference value: 57.03 %); assay type: functional
[16] = tested on: HepG2; assay: Cell cycle arrest in human HepG2 cells assessed as accumulation at S phase at 20 uM after 24 hrs using propidium iodide staining by flow cytometric analysis (reference value: 28.66 %); assay type: functional
[17] = tested on: HepG2; assay: Cell cycle arrest in human HepG2 cells assessed as accumulation at G2/M phase at 20 uM after 24 hrs using propidium iodide staining by flow cytometric analysis (reference value: 14.31 %); assay type: functional
[18] = tested on: HepG2; assay: Cell cycle arrest in human HepG2 cells assessed as accumulation at G0/G1 phase at 30 uM after 24 hrs using propidium iodide staining by flow cytometric analysis (reference value: 57.03 %); assay type: functional
[19] = tested on: HepG2; assay: Cell cycle arrest in human HepG2 cells assessed as accumulation at S phase at 30 uM after 24 hrs using propidium iodide staining by flow cytometric analysis (reference value: 28.66 %); assay type: functional
[20] = tested on: HepG2; assay: Cell cycle arrest in human HepG2 cells assessed as accumulation at G2/M phase at 30 uM after 24 hrs using propidium iodide staining by flow cytometric analysis (reference value: 14.31 %); assay type: functional
[21] = tested on: HepG2; assay: Cell cycle arrest in human HepG2 cells assessed as accumulation at G0/G1 phase after 24 hrs using propidium iodide staining by flow cytometric analysis; assay type: functional, cell-based
[22] = tested on: HepG2; assay: Cell cycle arrest in human HepG2 cells assessed as reduction at G2/M phase after 24 hrs using propidium iodide staining by flow cytometric analysis; assay type: functional, cell-based
[23] = tested on: HepG2; assay: Cell cycle arrest in human HepG2 cells assessed as accumulation at S phase after 24 hrs using propidium iodide staining by flow cytometric analysis; assay type: functional, cell-based
[24] = tested on: HepG2; assay: cells; settings: Homo sapiens, HepG2, 24 h
Description: Cytotoxicity against human HepG2 cells after 24 hrs by MTT assay

[25] = tested on: HeLa; assay: cells; settings: Homo sapiens, 24 h
Description: Cytotoxicity against human HeLa cells after 24 hrs by MTT assay

Question: With `CC(=O)O[C@H]1CC[C@]2(C)[C@H]3CC=C4[C@@H]5[C@@H](C)[C@H](C)CC[C@]5(C(=O)N(CCO)CCO)CC[C@@]4(C)[C@]3(C)CC[C@H]2C1(C)C` as the compound, how does the IC50 [1] read?
Answer: Its IC50 is 15.5 µM.

Question: What about the IC50 [2] of the same compound?
Answer: The IC50 was 13.2 µM.

Question: And the IC50 [3]?
Answer: The IC50 was 38.1 µM.

Question: What about the Activity [4] of the same compound?
Answer: The Activity was “Active”.

Question: And the Activity [5]?
Answer: The Activity was “Dose-dependent effect”.

Question: And the Activity [6]?
Answer: The Activity was “Dose-dependent effect”.

Question: What about the Activity [7] of the same compound?
Answer: Its Activity is “Dose-dependent effect”.

Question: And the Activity [8]?
Answer: The Activity was 55.89%.

Question: And the Activity [9]?
Answer: The Activity was 32.13%.

Question: And the Activity [10]?
Answer: Its Activity is 11.98%.

Question: And the inhibition in vivo at 100 mg/kg [11]?
Answer: Its inhibition in vivo at 100 mg/kg is 45.6%.

Question: What about the inhibition in vivo at 150 mg/kg [12] of the same compound?
Answer: Its inhibition in vivo at 150 mg/kg is 43%.

Question: And the Activity [13]?
Answer: Its Activity is “Active”.

Question: And the inhibition in vivo at 50 mg/kg [14]?
Answer: The inhibition in vivo at 50 mg/kg was 36.6%.

Question: What about the Activity [15] of the same compound?
Answer: Its Activity is 52.91%.

Question: What about the Activity [16] of the same compound?
Answer: The Activity was 37.43%.

Question: What about the Activity [17] of the same compound?
Answer: The Activity was 9.66%.

Question: And the Activity [18]?
Answer: Its Activity is 51.57%.

Question: What about the Activity [19] of the same compound?
Answer: Its Activity is 41.53%.

Question: What about the Activity [20] of the same compound?
Answer: The Activity was 6.9%.

Question: And the Activity [21]?
Answer: Its Activity is “Dose-dependent effect”.

Question: And the Activity [22]?
Answer: Its Activity is “Dose-dependent effect”.

Question: And the Activity [23]?
Answer: Its Activity is “Dose-dependent effect”.

Question: What about the IC50 [24] of the same compound?
Answer: Its IC50 is 20.2 µM.

Question: What about the IC50 [25] of the same compound?
Answer: Its IC50 is 10.9 µM.
